Each compound was assayed against CREB-binding protein (Homo sapiens, UniProt Q92793) (assay: In Vitro CBP Inhibition: The CBP-inhibitory activity of the compounds described herein was determined by calculating the IC50. More specifically, CBP inhibitor activity was assayed as follows: CBP was cloned and expressed in E. coli as His-tag protein and purified by Nickel affinity and gel-filtration chromatography. […] CBP binding and inhibition is assessed by monitoring the interaction of biotinylated H4-tetraacetyl peptide (AnaSpec, H4K5/8/12/16(Ac), biotin-labeled) with the target using the AlphaScreen technology (Perkin Elmer). In a 384-well ProxiPlate CBP (50 nM final) was combined with peptide (20 nM final) in 50 mM HEPES (pH 7.3), 10 mM NaCl, 0.25 mM TCEP, 0.1% (w/v) BSA, and 0.005% (w/v) Brij-35 either in the presence of DMSO (final 0.4% DMSO) or compound dilution series in DMSO. After 20 min incubation at room temp, Alpha-streptavidin donor beads and Nickel Chelate acceptor beads were added to a final concentration of 5 μg/mL.).
CREB-binding protein, sequence (Q92793 whole entry): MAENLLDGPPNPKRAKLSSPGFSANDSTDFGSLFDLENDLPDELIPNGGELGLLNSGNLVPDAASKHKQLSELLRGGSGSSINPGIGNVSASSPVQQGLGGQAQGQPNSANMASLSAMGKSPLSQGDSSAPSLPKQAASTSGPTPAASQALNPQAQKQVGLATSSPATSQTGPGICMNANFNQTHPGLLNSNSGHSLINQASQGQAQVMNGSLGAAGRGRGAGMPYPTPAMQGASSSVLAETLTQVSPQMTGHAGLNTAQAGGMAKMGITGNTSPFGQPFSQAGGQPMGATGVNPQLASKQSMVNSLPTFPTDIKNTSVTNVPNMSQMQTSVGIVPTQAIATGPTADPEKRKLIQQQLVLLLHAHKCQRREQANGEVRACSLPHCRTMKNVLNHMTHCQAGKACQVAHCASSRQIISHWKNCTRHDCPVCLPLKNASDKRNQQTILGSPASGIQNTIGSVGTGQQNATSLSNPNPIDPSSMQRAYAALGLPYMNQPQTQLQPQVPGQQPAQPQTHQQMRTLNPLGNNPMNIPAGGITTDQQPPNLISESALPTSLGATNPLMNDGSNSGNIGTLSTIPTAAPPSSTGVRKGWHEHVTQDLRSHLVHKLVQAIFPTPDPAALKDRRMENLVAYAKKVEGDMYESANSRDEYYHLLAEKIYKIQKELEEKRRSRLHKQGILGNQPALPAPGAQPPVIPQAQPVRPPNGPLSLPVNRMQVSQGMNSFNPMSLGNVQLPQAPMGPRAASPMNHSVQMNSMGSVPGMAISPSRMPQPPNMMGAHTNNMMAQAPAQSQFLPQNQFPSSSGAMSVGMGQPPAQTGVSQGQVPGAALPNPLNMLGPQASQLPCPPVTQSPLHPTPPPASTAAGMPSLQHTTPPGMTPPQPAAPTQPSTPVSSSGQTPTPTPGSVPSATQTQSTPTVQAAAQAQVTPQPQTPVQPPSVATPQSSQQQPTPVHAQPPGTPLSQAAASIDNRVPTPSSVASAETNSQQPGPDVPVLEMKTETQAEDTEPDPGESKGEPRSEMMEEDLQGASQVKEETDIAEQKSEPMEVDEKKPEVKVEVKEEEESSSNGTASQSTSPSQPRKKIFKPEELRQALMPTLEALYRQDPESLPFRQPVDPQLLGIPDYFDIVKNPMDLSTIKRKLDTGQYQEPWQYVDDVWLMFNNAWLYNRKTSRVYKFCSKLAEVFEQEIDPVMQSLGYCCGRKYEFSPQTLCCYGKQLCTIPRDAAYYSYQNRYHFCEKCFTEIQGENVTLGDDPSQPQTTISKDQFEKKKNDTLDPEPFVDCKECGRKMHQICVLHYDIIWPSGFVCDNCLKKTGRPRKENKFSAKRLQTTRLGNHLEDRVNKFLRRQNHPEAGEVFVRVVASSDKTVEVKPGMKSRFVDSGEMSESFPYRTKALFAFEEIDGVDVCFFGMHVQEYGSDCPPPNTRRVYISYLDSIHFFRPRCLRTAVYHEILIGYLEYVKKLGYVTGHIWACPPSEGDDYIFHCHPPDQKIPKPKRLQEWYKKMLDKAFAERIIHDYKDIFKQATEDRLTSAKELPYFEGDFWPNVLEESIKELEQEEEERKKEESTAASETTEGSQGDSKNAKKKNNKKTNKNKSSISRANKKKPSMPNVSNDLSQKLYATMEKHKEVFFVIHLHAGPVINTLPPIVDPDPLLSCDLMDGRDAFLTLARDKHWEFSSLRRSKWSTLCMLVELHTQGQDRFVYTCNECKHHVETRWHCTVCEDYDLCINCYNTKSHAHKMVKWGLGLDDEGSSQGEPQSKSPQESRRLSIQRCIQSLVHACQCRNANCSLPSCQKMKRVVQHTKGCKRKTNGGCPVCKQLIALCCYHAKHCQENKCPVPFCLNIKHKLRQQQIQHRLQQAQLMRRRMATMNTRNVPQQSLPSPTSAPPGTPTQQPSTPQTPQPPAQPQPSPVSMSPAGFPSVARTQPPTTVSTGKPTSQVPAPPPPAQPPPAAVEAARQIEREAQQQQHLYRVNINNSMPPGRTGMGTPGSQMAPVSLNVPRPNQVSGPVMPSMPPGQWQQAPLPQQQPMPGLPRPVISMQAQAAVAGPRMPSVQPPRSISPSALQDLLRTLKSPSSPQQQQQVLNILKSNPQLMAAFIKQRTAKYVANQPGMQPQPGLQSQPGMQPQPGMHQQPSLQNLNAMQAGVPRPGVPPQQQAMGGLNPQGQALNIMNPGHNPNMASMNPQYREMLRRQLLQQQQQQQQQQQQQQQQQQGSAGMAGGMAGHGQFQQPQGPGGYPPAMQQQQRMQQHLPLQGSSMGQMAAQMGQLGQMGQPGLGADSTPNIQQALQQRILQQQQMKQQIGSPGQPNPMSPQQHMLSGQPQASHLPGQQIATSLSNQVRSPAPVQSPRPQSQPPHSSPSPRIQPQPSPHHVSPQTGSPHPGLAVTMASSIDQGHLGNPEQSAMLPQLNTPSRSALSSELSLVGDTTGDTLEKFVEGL

Row | IC50 [nM] | Structure (SMILES)
1 | < 500 | COc1ccc(C(=O)O)c(-n2cc(-c3cn(C)c(=O)cc3-c3ccc(Cl)cc3)cn2)c1
2 | < 500 | COc1cc(-c2cc(=O)n(C)cc2-c2cnn(-c3ccccc3C(=O)NC#N)c2)ccn1
3 | < 500 | Cn1cc(-c2cnn(CC3CC3)c2)c(-c2ccc(C(=O)O)cc2)cc1=O
4 | < 500 | Cn1cc(COc2cc(=O)n(C)cc2-c2cnn(-c3ccccc3Cl)c2)cn1
5 | < 500 | Cn1cc(-c2cnn(CC3CC3)c2)c(-c2ccc(C(F)(F)F)cc2)cc1=O
6 | < 500 | CNC(=O)Cn1cc(-c2cn(C)c(=O)cc2-c2ccccc2)cn1
7 | < 500 | COc1ccc(-c2cc(=O)n(C)cc2-c2cnn(-c3ccccc3C(=O)O)c2)cc1
8 | < 500 | COc1ccc(C#N)c(-n2cc(-c3cn(C)c(=O)cc3-c3ccc(Cl)cc3)cn2)c1
9 | < 500 | COc1ccc(-c2cc(=O)n(C)cc2-c2cnn(-c3ccccc3C#N)c2)cc1
10 | < 500 | Cn1cc(-c2cnn(Cc3ccccc3)c2)c(-c2cccc(Cl)c2)cc1=O
11 | < 500 | CCOc1cc(=O)n(C)cc1-c1cnn(C(C)c2cccc(-c3cnn(C)c3)c2)c1 (configuration not stated)
12 | < 500 | Cn1cc(-c2cnn(CC3CCCCC3)c2)c(-c2ccccc2)cc1=O
13 | < 500 | Cc1cc(-c2cnn(C(c3ccccc3)C3CC3)c2)cn(C)c1=O (configuration not stated)
14 | < 500 | COc1ccc(-c2cc(=O)n(C)cc2-c2cnn(-c3ccccc3C(=O)NC#N)c2)cn1
15 | < 500 | Cn1cc(-c2cnn(-c3ccccc3-c3nnn[nH]3)c2)c(-c2ccc(F)cc2)cc1=O
16 | < 500 | Cn1cc(-c2cnn(Cc3ccccc3)c2)c(-c2cnn(CC(=O)O)c2)cc1=O
17 | < 500 | Cn1cc(-c2cnn(Cc3ccccc3)c2)c(-c2ccc(Cl)cc2)cc1=O
18 | < 500 | Cn1cc(-c2cnn(-c3ccccc3C(=O)O)c2)c(-c2ccc(Cl)cc2)cc1=O
19 | < 500 | CNC(=O)c1ccc(-c2cc(=O)n(C)cc2-c2cnn(CC3CC3)c2)cc1
20 | < 500 | Cn1ccc(-c2cc(=O)n(C)cc2-c2cnn(-c3cccc(F)c3C#N)c2)cc1=O

Row | Structure (SMILES) | IC50 [nM]
21 | COc1ccccc1-c1cc(=O)n(C)cc1-c1cnn(Cc2ccccc2)c1 | > 5000

These compounds were tested against Bromodomain-containing protein 4 (Homo sapiens, UniProt O60885) (assay: In Vitro Enzyme Inhibition Assay-BRD4 Inhibition: Inhibition of BRD4 was determined as described previously. See, e.g., U.S. Pat. No. 9,034,900.).

Row | IC50 [nM] | Structure (SMILES)
22 | > 5000 | Cn1cc(-c2cnn(CC3CC3)c2)c(-c2ccc(C(=O)O)cc2)cc1=O

Reference: ChEMBL document CHEMBL5727633, “Therapeutic compounds” (2020)
